# Assay results from US20090131431A1, “Pyrazolo[3,4-b]pyridine compounds, and their use as a PDE4 inhibitors” (priority 2005, published 2009).
# Target: T1, PDE4B (human recombinant) (Homo sapiens, UniProt Q07343)
# T1 construct: made in house
# Assay: Inhibition of PDE4B activity: SPA and/or Fluorescence Polarisation (FP) assay
# Type: biochemical
# Conditions: one reading (n=1) or average of 2 or more readings, read-out: PDE4B pIC50 (±about 0.5) (converted)
# Outline: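 Human recombinant PDE4B activity measured by SPA with [3H]cAMP at about 10 nM, 1 h at ambient temperature, enzyme set for ≤20% substrate hydrolysis, or by IMAP FP with Fl-cAMP at about 40 nM, 40 min at ambient temperature under linear conditions. Inhibition curves fitted; values reported as pIC50.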
# T1 sequence (Q07343 1-564 isoform Q07343-2): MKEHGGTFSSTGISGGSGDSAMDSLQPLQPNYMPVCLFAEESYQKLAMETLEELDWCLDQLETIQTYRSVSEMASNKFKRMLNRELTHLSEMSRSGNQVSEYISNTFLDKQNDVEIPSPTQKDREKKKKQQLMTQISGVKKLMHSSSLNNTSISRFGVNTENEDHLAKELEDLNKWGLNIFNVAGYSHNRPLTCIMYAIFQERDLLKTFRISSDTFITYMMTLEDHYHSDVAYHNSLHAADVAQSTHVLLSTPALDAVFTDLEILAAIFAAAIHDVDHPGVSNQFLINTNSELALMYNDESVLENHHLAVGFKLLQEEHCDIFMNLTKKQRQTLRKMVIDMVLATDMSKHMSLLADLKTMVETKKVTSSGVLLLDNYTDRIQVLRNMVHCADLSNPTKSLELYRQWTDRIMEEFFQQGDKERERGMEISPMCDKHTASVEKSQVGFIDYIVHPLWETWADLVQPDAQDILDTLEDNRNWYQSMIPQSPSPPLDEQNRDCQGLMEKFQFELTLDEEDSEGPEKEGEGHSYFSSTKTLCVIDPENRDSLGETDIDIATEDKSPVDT
row,IC50 [nM],Compound
1,0.01 to 0.1,"CCc1nc2c(cnn2CC)c(NC2CCN(C(N)=O)CC2)c1CNC(=O)c1ccc(C)cc1O [Example 245, 4-{[1,6-diethyl-5-({[(2-hydroxy-4-methylphenyl)carbonyl]amino}methyl)-1H-pyrazolo[3,4-b]pyridin-4-yl]amino}-1-piperidinecarboxamide]"
2,0.01 to 0.1,"CCn1ncc2c(NC3CCN(C(N)=O)CC3)c(CNC(=O)c3ccc(C(C)C)cc3)c(C)nc21 [Example 263, 4-({1-ethyl-6-methyl-5-[({[4-(1-methylethyl)phenyl]carbonyl}amino)methyl]-1H-pyrazolo[3,4-b]pyridin-4-yl}amino)-1-piperidinecarboxamide]"
3,0.126 to 1,"CCc1nc2c(cnn2CC)c(NC2CCOCC2)c1CNC(=O)c1ccn(C)n1 [Example 238, N-{[1,6-diethyl-4-(tetrahydro-2H-pyran-4-ylamino)-1H-pyrazolo[3,4-b]pyridin-5-yl]methyl}-1-methyl-1H-pyrazole-3-carboxamide]"
4,0.126 to 1,"CCn1ncc2c(NC3CCOCC3)c(CNC(=O)c3cnc(C)cn3)c(C(F)(F)F)nc21 [Example 348, N-{[1-Ethyl-4-(tetrahydro-2H-pyran-4-ylamino)-6-(trifluoromethyl)-1H-pyrazolo[3,4-b]pyridin-5-yl]methyl}-5-methyl-2-pyrazinecarboxamide]"
5,0.01 to 0.1,"CCn1ncc2c(NC3CCN(C(N)=O)CC3)c(CNC(=O)c3ccc(C(C)(C)C)cc3)c(C)nc21 [Example 262, 4-({5-[({[4-(1,1-dimethylethyl)phenyl]carbonyl}amino)methyl]-1-ethyl-6-methyl-1H-pyrazolo[3,4-b]pyridin-4-yl}amino)-1-piperidinecarboxamide]"
6,0.01 to 0.1,"CCc1nc2c(cnn2CC)c(NC2CCN(C(N)=O)CC2)c1CNC(=O)c1cccc2c1OCC2 [Example 205, 4-[(5-{[(2,3-dihydro-1-benzofuran-7-ylcarbonyl)amino]methyl}-1,6-diethyl-1H-pyrazolo[3,4-b]pyridin-4-yl)amino]-1-piperidinecarboxamide]"
7,0.126 to 1,"CCn1ncc2c(NC3CCOCC3)c(CNC(=O)c3ccc(N(C)C)cc3)cnc21 [Example 88, 4-(dimethylamino)-N-{[1-ethyl-4-(tetrahydro-2H-pyran-4-ylamino)-1H-pyrazolo[3,4-b]pyridin-5-yl]methyl}benzamide]"
8,0.126 to 1,"CCn1ncc2c(NC3CCOCC3)c(CNC(=O)c3ccc(F)cc3F)c(C)nc21 [Example 312, N-{[1-ethyl-6-methyl-4-(tetrahydro-2H-pyran-4-ylamino)-1H-pyrazolo[3,4-b]pyridin-5-yl]methyl}-2,4-difluorobenzamide]"
9,0.01 to 0.1,"CCn1ncc2c(NC3CCN(C(N)=O)CC3)c(CNC(=O)c3ccc(C(=O)NC)cc3)c(C)nc21 [Example 268, N-[(4-{[1-(aminocarbonyl)-4-piperidinyl]amino}-1-ethyl-6-methyl-1H-pyrazolo[3,4-b]pyridin-5-yl)methyl]-N′-methyl-1,4-benzenedicarboxamide]"
10,0.126 to 1,"CCc1nc2c(cnn2CC)c(NC2CCOCC2)c1CNC(=O)c1nc(C)oc1C(F)(F)F [Example 155, N-{[1,6-diethyl-4-(tetrahydro-2H-pyran-4-ylamino)-1H-pyrazolo[3,4-b]pyridin-5-yl]methyl}-2-methyl-5-(trifluoromethyl)-1,3-oxazole-4-carboxamide]"
11,0.01 to 0.1,"CCc1nc2c(cnn2CC)c(NC2CCOCC2)c1CNC(=O)c1ccc(C(C)(C)C)cc1 [Example 252, N-{[1,6-diethyl-4-(tetrahydro-2H-pyran-4-ylamino)-1H-pyrazolo[3,4-b]pyridin-5-yl]methyl}-4-(1,1-dimethylethyl)benzamide]"
12,0.01 to 0.1,"CCc1nc2c(cnn2CC)c(NC2CCOCC2)c1CNC(=O)c1ccc2c(c1)CCCS2(=O)=O [Example 258, N-{[1,6-diethyl-4-(tetrahydro-2H-pyran-4-ylamino)-1H-pyrazolo[3,4-b]pyridin-5-yl]methyl}-3,4-dihydro-2H-1-benzothiopyran-6-carboxamide 1,1-dioxide]"
